In patent US20110319484A1, “NEUROPROTECTIVE COMPOUNDS” (Parque Tecnologico de Ciencias de la Salud, priority 2009, published 2011):
“Also recorded” adds a separate entry of the source.

How the values were obtained:
[1] = Crossing of the blood-brain barrier by PAMPA in vitro assay; format: in vitro ADME, pig; settings: acid forms, 100 μM, pH 7.4, 18 h
Experimental: To that end, the PAMPA (Parallel Artificial Membrane Permeation Assay) assay was used, which uses a sandwich system contemplating the crossing of compounds by means of passive diffusion, preventing active transport.
A mixture of commercial lipids derived from pig brain with a phospholipid composition very similar to that which forms the human BBB, called PBL (Porcine Polar Brain Lipid), was used to mimic the BBB, and it was stored at −20° C. dissolved in dodecane at 100 μg/ml in glass vials. The verapamil and theophylline were prepared at 10 mM in DMSO, whereas the acid forms of NST0003, NST0004 and NST0005 were prepared in water and were activated with 0.1 N NaOH at 4° C. for 12 h.
At the time of the assay, 1.5 ml of the compounds to be evaluated at 100 μM were prepared in a phosphate buffer at pH 7.4, maintaining a constant concentration of DMSO of 1%. 5 μl of PBL at 20 μg/ml were added in a 96-well filter plate, with a polyvinylidene fluoride (PVDF) membrane, with a pore size of […] (MAIPN4550, Millipore). After 2 minutes, 300 μl of the phosphate buffer used to dilute the compounds were added. This plate was considered the “acceptor” plate and was placed in the top part of the sandwich. 300 μl of the compounds were added at 100 μM on another 96-well plate which is assembled with the previous one (MATRNP550 of Millipore) (called “donor”) and in triplicate. […] After that time, 100 μl of the wells of the donor plates and of the acceptor plates were transferred to a special 96-well plate for ultraviolet (UV) reading. […] The plate was introduced in a spectrophotometer in which a scan was carried out in UV from 230 to 498 nm, with readings every 4 nm. From the data provided by the spectrophotometer the percentage of barrier crossing as well as the effective permeability (Pe) were calculated by applying the following formula:
[formula] […] [formula] • [Drug]acceptor=Absorbance of the acceptor well • [Drug]equilibrium=Absorbance of the mean of the basal wells/2 • VA=Volume of the acceptor well=0.3 cm^3 • VD=Volume of the donor well=0.3 cm^3 • Area=0.24 cm^2 • Time=64,000 s

[2] = test system: zebrafish larvae; assay: Inhibition of TBH-induced apoptosis in the brain of the zebrafish embryo (Acridine Orange); format: in vivo, zebrafish (Danio rerio); settings: zebrafish larvae 96 hpf, TBH 0.45 mM, compound 1 μg/ml, 24 h
Experimental: To that end, an assay was performed on zebrafish larvae (96 hours post-fertilization). The fertilized eggs were obtained by a natural birth of adult zebrafish (AB strain) in the inventors' laboratory, carried out according to what is described in The Zebrafish Book [Westerfield, M. (1995) The Zebrafish Book. A Guide for the Laboratory Use of Zebrafish (Danio rerio). 3rd ed., University of Oregon Press, Eugene]. The eggs were collected in the 1st hour after spawning, washed and deposited in a clean Petri dish with embryo water (medium) (4.9 mM NaCl, 0.17 mM KCl, 0.33 mM CaCl.2H2O, 0.33 .mM MgSO4.7H2O, pH 7.2) prepared following the guidelines described in the book Zebrafish. Practical approach [Nusslein-Volhard, C and Dahm, R (2002) Zebrafish. Practical approach. Oxford: Oxford University Press].
The inhibition caused by the NST0003, NST0004 and NST0005 compounds on cell death caused by the tert-butyl hydroperoxide (TBH) compound, which is a pro-oxidizing compound which induces specific neurotoxicity in zebrafish larvae by means of the mechanism of apoptosis, was analyzed.
The larvae (at 96 hours post-fertilization [hpf]) were seeded in 96-well plates (3 larvae/well), performing a triplicate (3 wells) for experimental condition, thus obtaining an intra-assay triplicate. The larvae were treated in a total volume of embryo medium of 100 μl per well for the following conditions: (i) control (embryo medium); (ii), TBH [0.45 mM], which corresponds with the maximum tolerated dose (MTD), which induces neurotoxicity in the larvae but not mortality; and (iii) TBH [0.45 mM] and NST0003, NST0004 and NST0005, all at the concentration of 1 μg/ml. […]
Thus, the control larvae and the treated larvae were immersed in 1 μg/ml of AO in embryo water at 28.5° C. for 60 minutes. […] AO is a fluorescent compound which can be readily measured and quantified with a fluorometer. Therefore, the larvae were anesthetized with tricaine (3-aminobenzoic acid ethyl ester) and homogenized for their subsequent reading in a fluorescence plate reader (excitation: 488 nm; emission: 530 nm). […]

Row | SMILES | crossing of the blood-brain barrier [1] | reduction of apoptosis induced by TBH [2] [%]
1 | CCC(=O)O[C@H]1C[C@@H](C)C=C2C=C[C@H](C)[C@H](CC[C@@H]3C[C@@H](O)CC(=O)O3)[C@H]21 [NST0003, (1S,3R,7S,8S,8aR)-1,2,3,7,8,8a-hexahydro-3,7-dimethyl-8-[2-[(2R,4R)-tetrahydro-4-hydroxy-6-oxo-2H-pyran-2-yl]ethyl-1-naphthalenyl propanoate] | capable of crossing the blood-brain barrier | 50.7±17.1
2 | CC(C)C(=O)O[C@H]1C[C@@H](C)C=C2C=C[C@H](C)[C@H](CC[C@@H]3C[C@@H](O)CC(=O)O3)[C@H]21 [NST0004] | capable of crossing the blood-brain barrier | 45.3±18.9
3 | C[C@H]1C=C2C=C[C@H](C)[C@H](CC[C@@H]3C[C@@H](O)CC(=O)O3)[C@H]2[C@@H](OC(=O)C(C)(C)C)C1 [NST0005] | highest capacity to cross the BBB; also recorded: capable of crossing the blood-brain barrier | 34.3±17.3
